Experiment [1] concerns tonic current in dentate gyms granule cells (DGGCs). Briefly: Acute (allosteric) modulation of tonic current in DGGCs of hippocampal slices. The class given is cell-based, mice. To be noted: 100 nM, 10 min acute exposure, then 100 μM picrotoxin; mean±SEM. How it is done: Brain slices were prepared from 3- to 5-week-old male C57 mice. Mice were anesthetized with isoflurane, decapitated, and brains were rapidly removed and submerged in ice-cold cutting solution containing (mM): 126 NaCl, 2.5 KCl, 0.5 CaCl2, 2 MgCl2, 26 NaHCO3, 1.25 NaH2PO4, 10 glucose, 1.5 sodium pyruvate, and 3 kynurenic acid. Coronal 310 μm thick slices were cut with the vibratome VT1000S (Leica Microsystems, St Louis, Mo., USA). The slices were then transferred into incubation chamber filled with prewarmed (31-32° C.) oxygenated artificial cerebro-spinal fluid (ACSF) of the following composition (in mM): 126 NaCl, 2.5 KCl, 2 CaCl2, 2 MgCl2, 26 NaHCO3, 1.25 NaH2PO4, 10 glucose, 1.5 sodium pyruvate, 1 glutamine, 3 kynurenic acid and 0.005 GABA bubbled with 95% O2-5% CO2. Slices were allowed to recover at 32° C. for at least 1 hr before recording. Exogenous GABA was added in an attempt to standardize ambient GABA in the slice and provide an agonist source for newly inserted extrasynaptic GABAARs. […]
Whole-cell currents were recorded from the dentate gyms granule cells (DGGCs) in 310-μm-thick coronal hippocampal slices. […] A 5 min period for stabilization after obtaining the whole-cell recording conformation (holding potential of −60 mV) was allowed before currents were recorded using an Axopatch 200B amplifier (Molecular Devices), low-pass filtered at 2 kHz, digitized at 20 kHz (Digidata 1440A; Molecular Devices), and stored for offline analysis.
For tonic current measurements, an all-points histogram was plotted for a 10 s period before and during 100 μM picrotoxin application, once the response reached a plateau level. […] Series resistance and whole-cell capacitance were continually monitored and compensated throughout the course of the experiment. […] Spontaneous inhibitory post-synaptic currents (sIPSCs) were analyzed using the mini-analysis software (version 5.6.4; Synaptosoft, Decatur, Ga.). […] Only recordings with a minimum of 200 events fitting these criteria were analyzed. sIPSCs amplitude, and frequency from each experimental condition was pooled and expressed as mean±SEM. […]

Experiment [2] relates to GT1-7 cells (co-express mPRα and GABAARs), β3 S408/9 phosphorylation. Briefly: Immunoblot of β3 S408/9 phosphorylation in GT1-7 cells. It counts as cell-based. The settings on record: 100 nM, 15 min; n=6. How it is done: GT1-7 cells that co-express mPRα and GABAARs were used to measure the level of phosphorylation at S408/9 position of β3 subunit. Quantitative PCR analysis indicated the enrichment of the mPRα mRNA in GT1-7 cells (FIG. 15A upper, figure taken from Thomas and Pang 2012). Expression of mPRα was confirmed using western blotting. 10 and 15 μg of SDS-soluble extracts from GT1-7 cells were immunoblotted with an mPRα specific antibody (FIG. 15A lower).
GT1-7 cells were treated with 100 nM AllO or P4 for 15 min and immunoblotted with antibodies specifically recognizing β3, actin, and […] β3 subunit (pS408/9). The ratio of pS408/9 β3 subunit immunoreactivity were then normalized to levels seen in vehicle treated to controls, n=6.

The test system of experiment [3] is GABA-evoked currents in GT1-7 cells. Briefly: Patch-clamp of GABA-induced currents in GT1-7 cells, compound in the pipette electrolyte. The class given is cell-based. To be noted: 100 nM in electrolyte, GABA EC20, 20 min time course. How it is done:
Patch-clamp recordings were made from GT1-7 cells. The magnitude of the GABA-induced currents (IGABA) at EC20 agonists concentration were then measured, in the presence of control electrolyte or that supplemented with 100 nM ALLO, or 100 nM ORG OD 02-0 over a time course of 20 min.
Background: The patch-clamp technique gives a direct electrical read-out from membranes.

In experiment [4] the test system is sIPSCs in dentate gyms granule cells (DGGCs). Briefly: sIPSCs in DGGCs after 15 min exposure and >30 min wash. The class given is cell-based, mice. How it is done: For tonic current measurements, an all-points histogram was plotted for a 10 s period before and during 100 μM picrotoxin application, once the response reached a plateau level. Recordings with unstable baselines were discarded. Fitting the histogram with a Gaussian distribution gave the mean baseline current amplitude and the difference between the amplitudes before and during picrotoxin was considered to be the tonic current. The negative section of the all-points histogram which corresponds to the inward IPSCs was not fitted with a Gaussian distribution (Kretschmannova et al., 2013; Nusser and Mody, 2002). Series resistance and whole-cell capacitance were continually monitored and compensated throughout the course of the experiment. Recordings were eliminated from data analysis if series resistance increased by >20%. Spontaneous inhibitory post-synaptic currents (sIPSCs) were analyzed using the mini-analysis software (version 5.6.4; Synaptosoft, Decatur, Ga.). Minimum threshold detection was set to 3 times the value of baseline noise signal. […] Only recordings with a minimum of 200 events fitting these criteria were analyzed. sIPSCs amplitude, and frequency from each experimental condition was pooled and expressed as mean±SEM. To measure sIPSC decay, 100 consecutive events were averaged and the decay was fitted to a double exponential and the weighted decay constant (tw) was determined. […]

In experiment [5] the test system is plasma membrane GABAARs containing the α4 and β3 subunits (S408/9A mutant). Briefly: Biotinylation, surface/total GABAAR subunits in hippocampal slices of S408/9A mice. The settings on record: 100 nM, 20 min. It counts as cell-based. How it is done: Consistent with the examples above, hippocampal slices from WT and S408/9A mice were treated for 20 min with 100 nM SGE-516 or vehicle (Con) and subjected to biotinylation followed by immunoblotting with β3 and α4 subunit antibodies. The ratio of surface/total (S/T) immunoreactivity was then normalized to levels seen in control (100%).

Experiment [6] has as its system tonic current in DGGCs (β3 S408/9A mutant). Briefly: Sustained effect on tonic current in DGGCs from S408/9A mice. It counts as cell-based. To be noted: 100 nM, slices from S408/9A mice.

Here are results for 2 compounds from patent publication US20200341000A1, “METHOD OF SCREENING COMPOUNDS FOR TREATING CNS DISORDERS” (SAGE THERAPEUTICS, INC., priority 2017, published 2020).

For `CC(=O)[C@H]1CC[C@H]2[C@@H]3CC[C@H]4C[C@H](O)CC[C@]4(C)[C@H]3CC[C@]12C` [ALLO, Allopregnanolone], the “tonic current during acute exposure” value in experiment [1] is 58.3±13.0 pA. In addition, the “S408/9 phosphorylation (pS408/9/β3) in GT1-7 cells” value in experiment [2] is “increase”. The “GABA-evoked currents (IGABA) over time” value in experiment [3] is recorded as “sustained increases”.

Consider `C[C@@]1(O)CC[C@H]2[C@H](CC[C@@H]3[C@@H]2CC[C@]2(C)[C@@H](C(=O)Cn4nccn4)CC[C@@H]32)C1` [SGE-516], for which the “tonic current during acute exposure” value in experiment [1] was determined as 49.2±8.9 pA. Moreover, in experiment [4] (100 nM SGE-516 plus GFX), the “enhancement of sIPSC amplitude with GFX” value is reported as “significantly reduced”. In addition, the “sIPSC amplitude after exposure and wash” value in experiment [4] (100 nM, 15 min, washed >30 min) was “significantly enhanced”. Also, in experiment [5], the “increase of plasma membrane levels of GABAARs containing α4 and β3 subunits” value is listed as “not seen”. The “tonic current in DGGCs after incubation and extensive washout” value in experiment [6] is “did not modify”.
